Article PMC6934184, “Selective DNA-PKcs inhibition extends the therapeutic index of localized radiotherapy and chemotherapy” (The Journal of Clinical Investigation, 2019)

Biological target: T1, JAK2 (Homo sapiens, UniProt O60674)
T1 construct: purchased Thermo Fisher Scientific (Life Technologies) SelectScreen
Assay: SelectScreen Z'LYTE
Assay type: biochemical
How it was run: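 NU5455 was profiled across the SelectScreen Broad panel of kinase activity and binding assays. Z'LYTE reactions such as CSF1R ran at apparent Km ATP, while the Adapta CAMK1 assay used ATP listed as 10. Values are given as percent.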

T1 sequence (O60674 whole entry): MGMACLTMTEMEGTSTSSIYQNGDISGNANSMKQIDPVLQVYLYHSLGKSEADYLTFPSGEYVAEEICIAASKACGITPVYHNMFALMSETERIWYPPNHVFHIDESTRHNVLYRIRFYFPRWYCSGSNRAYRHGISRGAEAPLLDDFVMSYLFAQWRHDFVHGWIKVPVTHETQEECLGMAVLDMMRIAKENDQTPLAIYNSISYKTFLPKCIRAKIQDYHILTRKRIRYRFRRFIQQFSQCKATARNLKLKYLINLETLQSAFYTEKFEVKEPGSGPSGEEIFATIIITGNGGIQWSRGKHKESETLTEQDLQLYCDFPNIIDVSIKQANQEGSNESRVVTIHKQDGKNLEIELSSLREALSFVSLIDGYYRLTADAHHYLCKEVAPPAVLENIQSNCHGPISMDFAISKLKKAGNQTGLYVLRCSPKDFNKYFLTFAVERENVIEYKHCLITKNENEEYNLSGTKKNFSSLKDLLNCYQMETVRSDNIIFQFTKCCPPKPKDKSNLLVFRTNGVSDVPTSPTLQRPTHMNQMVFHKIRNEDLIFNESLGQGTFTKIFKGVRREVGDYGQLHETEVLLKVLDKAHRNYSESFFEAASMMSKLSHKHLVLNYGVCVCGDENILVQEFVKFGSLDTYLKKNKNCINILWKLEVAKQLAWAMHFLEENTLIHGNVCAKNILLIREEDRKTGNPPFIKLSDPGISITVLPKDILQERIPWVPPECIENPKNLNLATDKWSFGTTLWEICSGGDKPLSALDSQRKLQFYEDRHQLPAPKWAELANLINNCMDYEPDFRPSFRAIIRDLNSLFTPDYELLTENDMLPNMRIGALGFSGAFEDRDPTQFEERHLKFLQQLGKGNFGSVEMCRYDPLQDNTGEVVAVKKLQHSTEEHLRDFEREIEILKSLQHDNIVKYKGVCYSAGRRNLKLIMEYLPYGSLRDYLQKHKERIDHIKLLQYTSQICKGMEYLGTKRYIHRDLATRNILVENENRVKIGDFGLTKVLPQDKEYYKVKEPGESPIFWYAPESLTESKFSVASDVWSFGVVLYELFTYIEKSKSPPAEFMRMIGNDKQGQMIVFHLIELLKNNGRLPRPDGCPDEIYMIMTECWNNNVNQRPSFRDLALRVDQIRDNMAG

CN(C(=O)CN1CCOCC1)c1ccc2sc3c(-c4cccc5c(=O)cc(N6CC7CCC(C6)O7)oc45)cccc3c2c1 [NU5455]
inhibition at 1 µM: 2.5%
